Data reported in patent US20210037829A1, “ANTIMICROBIAL COMPOSITIONS FOR SURGICAL APPLICATIONS” (TELEFLEX MEDICAL INCORPORATED, priority 2015, published 2021).
Where “and” joins values, the source holds several entries; their conditions need not be identical. Equal values may be shown once.

What was measured:
Assay in all cases: Time to Kill
Assay type in all cases: cell-based
Candida albicans = settings: 128 ppm; for Exposure time to complete kill: C. albicans, challenge 10^4-10^5 CFU/mL; for Number of Microbial Colonies: Candida albicans, replicates 1-5
Method: (§1) Alexidine and Chlorhexidine, both at a concentration of 128 ppm were exposed to a Gram positive bacteria (Staphylococcus aureus), a Gram negative bacteria (Pseudomonas aeruginosa), and a fungus (Candida albicans). The challenge concentration for each organism was 10^4-10^5 CFU/mL, and the exposure time varied from 0.5-60 minutes. […] Complete kill of all three organisms was observed within 0.5-1 minute of Alexidine exposure.

Pseudomonas aeruginosa = settings: 128 ppm; for Exposure time to complete kill: P. aeruginosa, challenge 10^4-10^5 CFU/mL; for Number of Microbial Colonies: Pseudomonas aeruginosa, replicates 1-5
Method: as §1

Staphylococcus aureus = settings: 128 ppm; for Exposure time to complete kill: S. aureus, challenge 10^4-10^5 CFU/mL; for Number of Microbial Colonies: Staphylococcus aureus, replicates 1-5
Method: as §1

[1] = exposure 0.5 minutes, TNTC = too numerous to count
[2] = exposure 1 minute, TNTC = too numerous to count
[3] = exposure 5 minutes, TNTC = too numerous to count

Row | SMILES | Exposure time to complete kill (Candida albicans) [min] | Number of Microbial Colonies (Candida albicans; [1]) | Number of Microbial Colonies (Candida albicans; [2]) | Number of Microbial Colonies (Candida albicans; [3]) | Number of Microbial Colonies (Candida albicans; exposure 60 minutes) | Exposure time to complete kill (Pseudomonas aeruginosa) [min] | Number of Microbial Colonies (Pseudomonas aeruginosa; exposure 0.5 minutes) | Number of Microbial Colonies (Pseudomonas aeruginosa; exposure 1 minute) | Number of Microbial Colonies (Pseudomonas aeruginosa; exposure 5 minutes) | Number of Microbial Colonies (Pseudomonas aeruginosa; exposure 60 minutes) | Exposure time to complete kill (Staphylococcus aureus) [min] | Number of Microbial Colonies (Staphylococcus aureus; [1]) | Number of Microbial Colonies (Staphylococcus aureus; [2]) | Number of Microbial Colonies (Staphylococcus aureus; [3]) | Number of Microbial Colonies (Staphylococcus aureus; exposure 60 minutes)
1 | CCCCC(CC)CNC(=N)NC(=N)NCCCCCCNC(=N)NC(=N)NCC(CC)CCCC (stereo not drawn) [Alexidine] | 0.5 to 1 | 3 and 0 (4×) | 0 (4×) and 1 | 0 | 0 | 0.5 to 1 | 0 | 0 | 0 | 0 | 0.5 to 1 | 0 | 0 | 0 | 0
2 | [H]/N=C(\N/C(=N/[H])NCCCCCCNC(=N)NC(=N)Nc1ccc(Cl)cc1)Nc1ccc(Cl)cc1 [Chlorhexidine] | 60 | TNTC | TNTC | 30 and 20 and 32 and 24 and TNTC | 0 | 5 | 7 and 4 and 5 and 2 and 1 | 1 | 0 | 0 | 60 | TNTC | TNTC | TNTC | 1 (2×) and 0 (3×)
